In brackets after ≈: the same amount, converted by molar mass. Where two headings read alike, the source gives them in different places.
Test system: clinical Staphylococcus epidermidis strains
Experiment: Minimal bactericidal concentration (MBC), MBC/MIC
Format: cell-based
Conditions: for MBC: Staphylococcus epidermidis
Description: 2.5 Evaluation of bacteriostatic/bactericidal properties […]
determining MBC (Minimal Bactericidal Concentration) values. The study was conducted in accordance with the guidelines of the Clinical and Laboratory Standards Institute (CLSI).13 The MBC value was assumed to be the concentration of the compound inhibiting the growth of strains in 99.9%. Then, the value of the MBC/MIC ratio was calculated to assess its bactericidal or bacteriostatic activity. […]

O=C(Nc1cccc(Cl)c1)NC1CCN(CCC(Oc2ccc(C(F)(F)F)cc2)c2cccs2)CC1 (stereo not drawn) [Compound 25]
MBC (81 clinical strains (Table S5), read-out: Average of MBC): 29.2 µg/mL (≈ 54.2 µM) | MBC (clinical strain 1 (Table S5), read-out: MBC): 25 µg/mL (≈ 46.5 µM) | MBC (clinical strain 2 (Table S5), read-out: MBC): 25 µg/mL (≈ 46.5 µM) | MBC (clinical strain 3 (Table S5), read-out: MBC): 12.5 µg/mL (≈ 23.2 µM) | MBC (clinical strain 4 (Table S5), read-out: MBC): 25 µg/mL (≈ 46.5 µM) | MBC (clinical strain 5 (Table S5), read-out: MBC): 50 µg/mL (≈ 92.9 µM) | MBC (clinical strain 6 (Table S5), read-out: MBC): 25 µg/mL (≈ 46.5 µM) | MBC (clinical strain 7 (Table S5), read-out: MBC): 25 µg/mL (≈ 46.5 µM) | MBC (clinical strain 8 (Table S5), read-out: MBC): 12.5 µg/mL (≈ 23.2 µM) | MBC (clinical strain 9 (Table S5), read-out: MBC): 50 µg/mL (≈ 92.9 µM) | MBC (clinical strain 10 (Table S5), read-out: MBC): 50 µg/mL (≈ 92.9 µM) | MBC (clinical strain 11 (Table S5), read-out: MBC): 25 µg/mL (≈ 46.5 µM) | MBC (clinical strain 12 (Table S5), read-out: MBC): 25 µg/mL (≈ 46.5 µM) | MBC (clinical strain 13 (Table S5), read-out: MBC): 25 µg/mL (≈ 46.5 µM) | MBC (clinical strain 14 (Table S5), read-out: MBC): 25 µg/mL (≈ 46.5 µM) | MBC (clinical strain 15 (Table S5), read-out: MBC): 50 µg/mL (≈ 92.9 µM) | MBC (clinical strain 16 (Table S5), read-out: MBC): 25 µg/mL (≈ 46.5 µM) | MBC (clinical strain 17 (Table S5), read-out: MBC): 1.6 µg/mL (≈ 2.97 µM) | MBC (clinical strain 18 (Table S5), read-out: MBC): 50 µg/mL (≈ 92.9 µM) | MBC (clinical strain 19 (Table S5), read-out: MBC): 12.5 µg/mL (≈ 23.2 µM) | MBC (clinical strain 20 (Table S5), read-out: MBC): 25 µg/mL (≈ 46.5 µM) | MBC (clinical strain 21 (Table S5), read-out: MBC): 25 µg/mL (≈ 46.5 µM) | MBC (clinical strain 22 (Table S5), read-out: MBC): 12.5 µg/mL (≈ 23.2 µM) | MBC (clinical strain 23 (Table S5), read-out: MBC): 25 µg/mL (≈ 46.5 µM) | MBC (clinical strain 24 (Table S5), read-out: MBC): 25 µg/mL (≈ 46.5 µM) | MBC (clinical strain 25 (Table S5), read-out: MBC): 12.5 µg/mL (≈ 23.2 µM) | MBC (clinical strain 26 (Table S5), read-out: MBC): 50 µg/mL (≈ 92.9 µM) | MBC (clinical strain 27 (Table S5), read-out: MBC): 50 µg/mL (≈ 92.9 µM) | MBC (clinical strain 28 (Table S5), read-out: MBC): 12.5 µg/mL (≈ 23.2 µM) | MBC (clinical strain 29 (Table S5), read-out: MBC): 6.25 µg/mL (≈ 11.6 µM) | MBC (clinical strain 30 (Table S5), read-out: MBC): 12.5 µg/mL (≈ 23.2 µM) | MBC (clinical strain 31 (Table S5), read-out: MBC): 25 µg/mL (≈ 46.5 µM) | MBC (clinical strain 32 (Table S5), read-out: MBC): 25 µg/mL (≈ 46.5 µM) | MBC (clinical strain 33 (Table S5), read-out: MBC): 25 µg/mL (≈ 46.5 µM) | MBC (clinical strain 34 (Table S5), read-out: MBC): 25 µg/mL (≈ 46.5 µM) | MBC (clinical strain 35 (Table S5), read-out: MBC): 25 µg/mL (≈ 46.5 µM) | MBC (clinical strain 36 (Table S5), read-out: MBC): 25 µg/mL (≈ 46.5 µM) | MBC (clinical strain 37 (Table S5), read-out: MBC): 25 µg/mL (≈ 46.5 µM) | MBC (clinical strain 38 (Table S5), read-out: MBC): 25 µg/mL (≈ 46.5 µM) | MBC (clinical strain 39 (Table S5), read-out: MBC): 12.5 µg/mL (≈ 23.2 µM) | MBC (clinical strain 40 (Table S5), read-out: MBC): 12.5 µg/mL (≈ 23.2 µM) | MBC (clinical strain 41 (Table S5), read-out: MBC): 25 µg/mL (≈ 46.5 µM) | MBC (clinical strain 42 (Table S5), read-out: MBC): 12.5 µg/mL (≈ 23.2 µM) | MBC (clinical strain 43 (Table S5), read-out: MBC): 25 µg/mL (≈ 46.5 µM) | MBC (clinical strain 44 (Table S5), read-out: MBC): 25 µg/mL (≈ 46.5 µM) | MBC (clinical strain 45 (Table S5), read-out: MBC): 25 µg/mL (≈ 46.5 µM) | MBC (clinical strain 46 (Table S5), read-out: MBC): 12.5 µg/mL (≈ 23.2 µM) | MBC (clinical strain 47 (Table S5), read-out: MBC): 25 µg/mL (≈ 46.5 µM) | MBC (clinical strain 48 (Table S5), read-out: MBC): 25 µg/mL (≈ 46.5 µM) | MBC (clinical strain 49 (Table S5), read-out: MBC): 1.6 µg/mL (≈ 2.97 µM) | MBC (clinical strain 50 (Table S5), read-out: MBC): 50 µg/mL (≈ 92.9 µM) | MBC (clinical strain 51 (Table S5), read-out: MBC): 50 µg/mL (≈ 92.9 µM) | MBC (clinical strain 52 (Table S5), read-out: MBC): 50 µg/mL (≈ 92.9 µM) | MBC (clinical strain 53 (Table S5), read-out: MBC): 50 µg/mL (≈ 92.9 µM) | MBC (clinical strain 54 (Table S5), read-out: MBC): 12.5 µg/mL (≈ 23.2 µM) | MBC (clinical strain 55 (Table S5), read-out: MBC): 50 µg/mL (≈ 92.9 µM) | MBC (clinical strain 56 (Table S5), read-out: MBC): 25 µg/mL (≈ 46.5 µM) | MBC (clinical strain 57 (Table S5), read-out: MBC): 50 µg/mL (≈ 92.9 µM) | MBC (clinical strain 58 (Table S5), read-out: MBC): 12.5 µg/mL (≈ 23.2 µM) | MBC (clinical strain 59 (Table S5), read-out: MBC): 50 µg/mL (≈ 92.9 µM) | MBC (clinical strain 60 (Table S5), read-out: MBC): 50 µg/mL (≈ 92.9 µM) | MBC (clinical strain 61 (Table S5), read-out: MBC): 25 µg/mL (≈ 46.5 µM) | MBC (clinical strain 62 (Table S5), read-out: MBC): 25 µg/mL (≈ 46.5 µM) | MBC (clinical strain 63 (Table S5), read-out: MBC): 25 µg/mL (≈ 46.5 µM) | MBC (clinical strain 64 (Table S5), read-out: MBC): 50 µg/mL (≈ 92.9 µM) | MBC (clinical strain 65 (Table S5), read-out: MBC): 50 µg/mL (≈ 92.9 µM) | MBC (clinical strain 66 (Table S5), read-out: MBC): 25 µg/mL (≈ 46.5 µM) | MBC (clinical strain 67 (Table S5), read-out: MBC): 50 µg/mL (≈ 92.9 µM) | MBC (clinical strain 68 (Table S5), read-out: MBC): 50 µg/mL (≈ 92.9 µM) | MBC (clinical strain 69 (Table S5), read-out: MBC): 25 µg/mL (≈ 46.5 µM) | MBC (clinical strain 70 (Table S5), read-out: MBC): 50 µg/mL (≈ 92.9 µM) | MBC (clinical strain 71 (Table S5), read-out: MBC): 25 µg/mL (≈ 46.5 µM) | MBC (clinical strain 72 (Table S5), read-out: MBC): 50 µg/mL (≈ 92.9 µM) | MBC (clinical strain 73 (Table S5), read-out: MBC): 6.25 µg/mL (≈ 11.6 µM) | MBC (clinical strain 74 (Table S5), read-out: MBC): 50 µg/mL (≈ 92.9 µM) | MBC (clinical strain 75 (Table S5), read-out: MBC): 50 µg/mL (≈ 92.9 µM) | MBC (clinical strain 76 (Table S5), read-out: MBC): 25 µg/mL (≈ 46.5 µM) | MBC (clinical strain 77 (Table S5), read-out: MBC): 50 µg/mL (≈ 92.9 µM) | MBC (clinical strain 78 (Table S5), read-out: MBC): 25 µg/mL (≈ 46.5 µM) | MBC (clinical strain 79 (Table S5), read-out: MBC): 6.25 µg/mL (≈ 11.6 µM) | MBC (clinical strain 80 (Table S5), read-out: MBC): 50 µg/mL (≈ 92.9 µM) | MBC (clinical strain 81 (Table S5), read-out: MBC): 3.12 µg/mL (≈ 5.81 µM) | MBC (read-out: Mean MBC): 29.2 µg/mL (≈ 54.2 µM) | MBC/MIC ratio (clinical S. epidermidis strains): 16 | MBC/MIC (clinical strain 1 (Table S5)): 16 | MBC/MIC (clinical strain 2 (Table S5)): 16 | MBC/MIC (clinical strain 3 (Table S5)): 16 | MBC/MIC (clinical strain 4 (Table S5)): 16 | MBC/MIC (clinical strain 5 (Table S5)): 16 | MBC/MIC (clinical strain 6 (Table S5)): 16 | MBC/MIC (clinical strain 7 (Table S5)): 16 | MBC/MIC (clinical strain 8 (Table S5)): 16 | MBC/MIC (clinical strain 9 (Table S5)): 16 | MBC/MIC (clinical strain 10 (Table S5)): 16 | MBC/MIC (clinical strain 11 (Table S5)): 16 | MBC/MIC (clinical strain 12 (Table S5)): 16 | MBC/MIC (clinical strain 13 (Table S5)): 16 | MBC/MIC (clinical strain 14 (Table S5)): 16 | MBC/MIC (clinical strain 15 (Table S5)): 16 | MBC/MIC (clinical strain 16 (Table S5)): 16 | MBC/MIC (clinical strain 17 (Table S5)): 16 | MBC/MIC (clinical strain 18 (Table S5)): 16 | MBC/MIC (clinical strain 19 (Table S5)): 16 | MBC/MIC (clinical strain 20 (Table S5)): 16 | MBC/MIC (clinical strain 21 (Table S5)): 16 | MBC/MIC (clinical strain 22 (Table S5)): 16 | MBC/MIC (clinical strain 23 (Table S5)): 16 | MBC/MIC (clinical strain 24 (Table S5)): 16 | MBC/MIC (clinical strain 25 (Table S5)): 16 | MBC/MIC (clinical strain 26 (Table S5)): 16 | MBC/MIC (clinical strain 27 (Table S5)): 16 | MBC/MIC (clinical strain 28 (Table S5)): 16 | MBC/MIC (clinical strain 29 (Table S5)): 16 | MBC/MIC (clinical strain 30 (Table S5)): 16 | MBC/MIC (clinical strain 31 (Table S5)): 16 | MBC/MIC (clinical strain 32 (Table S5)): 16 | MBC/MIC (clinical strain 33 (Table S5)): 16 | MBC/MIC (clinical strain 34 (Table S5)): 16 | MBC/MIC (clinical strain 35 (Table S5)): 16 | MBC/MIC (clinical strain 36 (Table S5)): 16 | MBC/MIC (clinical strain 37 (Table S5)): 16 | MBC/MIC (clinical strain 38 (Table S5)): 16 | MBC/MIC (clinical strain 39 (Table S5)): 16 | MBC/MIC (clinical strain 40 (Table S5)): 16 | MBC/MIC (clinical strain 41 (Table S5)): 16 | MBC/MIC (clinical strain 42 (Table S5)): 16 | MBC/MIC (clinical strain 43 (Table S5)): 16 | MBC/MIC (clinical strain 44 (Table S5)): 16 | MBC/MIC (clinical strain 45 (Table S5)): 16 | MBC/MIC (clinical strain 46 (Table S5)): 16 | MBC/MIC (clinical strain 47 (Table S5)): 16 | MBC/MIC (clinical strain 48 (Table S5)): 16 | MBC/MIC (clinical strain 49 (Table S5)): 16 | MBC/MIC (clinical strain 50 (Table S5)): 16 | MBC/MIC (clinical strain 51 (Table S5)): 16 | MBC/MIC (clinical strain 52 (Table S5)): 16 | MBC/MIC (clinical strain 53 (Table S5)): 16 | MBC/MIC (clinical strain 54 (Table S5)): 16 | MBC/MIC (clinical strain 55 (Table S5)): 16 | MBC/MIC (clinical strain 56 (Table S5)): 16 | MBC/MIC (clinical strain 57 (Table S5)): 16 | MBC/MIC (clinical strain 58 (Table S5)): 16 | MBC/MIC (clinical strain 59 (Table S5)): 16 | MBC/MIC (clinical strain 60 (Table S5)): 16 | MBC/MIC (clinical strain 61 (Table S5)): 16 | MBC/MIC (clinical strain 62 (Table S5)): 16 | MBC/MIC (clinical strain 63 (Table S5)): 16 | MBC/MIC (clinical strain 64 (Table S5)): 16 | MBC/MIC (clinical strain 65 (Table S5)): 16 | MBC/MIC (clinical strain 66 (Table S5)): 16 | MBC/MIC (clinical strain 67 (Table S5)): 16 | MBC/MIC (clinical strain 68 (Table S5)): 16 | MBC/MIC (clinical strain 69 (Table S5)): 16 | MBC/MIC (clinical strain 70 (Table S5)): 16 | MBC/MIC (clinical strain 71 (Table S5)): 16 | MBC/MIC (clinical strain 72 (Table S5)): 16 | MBC/MIC (clinical strain 73 (Table S5)): 16 | MBC/MIC (clinical strain 74 (Table S5)): 16 | MBC/MIC (clinical strain 75 (Table S5)): 16 | MBC/MIC (clinical strain 76 (Table S5)): 16 | MBC/MIC (clinical strain 77 (Table S5)): 16 | MBC/MIC (clinical strain 78 (Table S5)): 16 | MBC/MIC (clinical strain 79 (Table S5)): 16 | MBC/MIC (clinical strain 80 (Table S5)): 16 | MBC/MIC (clinical strain 81 (Table S5)): 16
